Publication PMC8304608, “Impact of Membrane Lipids on UapA and AzgA Transporter Subcellular Localization and Activity in Aspergillus nidulans” (Journal of Fungi, 2021)

How the values were obtained:
UapA = target: T1, UapA (Aspergillus nidulans, UniProt Q07307); experiment: radiolabelled uptake in germinating conidiospores; type: cell-based; settings: apparent Km; wild-type lipid background; [8-3H]-xanthine 0.1 μM with unlabelled substrate 0.5-1000 μM; pH 6.8, 37 °C; labelled compound; background of strain lacking transporter subtracted; read-out: Xanthine Uptake Kinetics / Km
T1 construct: full-length in native germinating conidiospores; GFP-tagged UapA under native promoter used for localization (functionally replaces untagged); homodimer
T1 sequence (Q07307 whole entry): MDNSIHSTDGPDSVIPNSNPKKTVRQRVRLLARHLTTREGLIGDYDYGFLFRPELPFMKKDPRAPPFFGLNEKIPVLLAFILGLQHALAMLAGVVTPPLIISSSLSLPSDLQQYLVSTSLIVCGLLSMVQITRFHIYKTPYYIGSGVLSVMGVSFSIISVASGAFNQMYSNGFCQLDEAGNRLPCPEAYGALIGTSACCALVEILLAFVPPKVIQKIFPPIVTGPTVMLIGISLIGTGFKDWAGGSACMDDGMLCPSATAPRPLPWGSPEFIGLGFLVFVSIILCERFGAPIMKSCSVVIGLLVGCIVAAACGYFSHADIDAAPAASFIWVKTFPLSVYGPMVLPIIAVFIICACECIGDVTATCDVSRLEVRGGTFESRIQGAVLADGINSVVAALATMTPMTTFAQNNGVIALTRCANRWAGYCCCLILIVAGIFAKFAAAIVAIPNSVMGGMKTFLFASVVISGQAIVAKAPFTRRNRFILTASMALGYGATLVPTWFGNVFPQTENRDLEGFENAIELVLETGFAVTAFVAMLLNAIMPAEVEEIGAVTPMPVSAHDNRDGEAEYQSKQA
Text: radiolabelled uptake in germinating conidiospores on UapA

[1] = substrate: Nc1ncnc2nc[nH]c12; experiment: radiolabelled uptake in germinating conidiospores; type: cell-based, Aspergillus nidulans; settings: apparent Km, wild-type lipid background, [2,8-3H]-adenine 0.1 μM with unlabelled substrate 0.5-1000 μM, pH 6.8, 37 °C, labelled compound, background of strain lacking transporter subtracted
Text: radiolabelled uptake in germinating conidiospores on AzgA

| Molecule | Km (UapA) | Km [1] |
| --- | --- | --- |
| O=c1[nH]c(=O)c2[nH]cnc2[nH]1 [xanthine] | 5 ± 1 µM |  |
| AzgA (Aspergillus nidulans) (protein, full-length in native germinating conidiospores; GFP-tagged AzgA under native promoter used for localization (functionally replaces untagged)) MGYAEWIGRTNAAVARSPVGRWFRLEGSGHPRERKGAYFFTELRAGLATFFAMAYIISVNANITSDTGGTCVCPAEDLATACDNNTEYLLCKQEVNRDLVTATAAIAAIASFFLGLLANLPVALAPGMGLNAYFAYTVVGHHGTGLIPYSLAVTAVFVEGWIFLGLTLLGIRQWLARAIPASIKLATGAGIGLYLTLIGLSYSAGLGVVQGGTSSPIQLAGCASDTFGDDGLCPSSEKMRNPTMWIGIFCGGVFTVFLMMYRVKGAVIAGILLVSIISWPRPTPVTYFPHTETGDSSFDFFKKVVTFHPIQHTLVAQEWNISSNGGQFGLALITFLYVDILDATGTLYSMAKFAGAMDERTQDFEGSAMAYMVDAICISIGSLFGSPPVTAFVESGAGISEGGKTGLTSCMTGICFFIAVFFAPIFASIPPWATGSTLVIVGSMMMHATLEINWRYLGDAVPAFLTISLMPFTYSIADGLIAGILSYILINGGVWIVAKLTGGRISPPNREEEHEPWTWKIPGGFFPPWLVRAVHGKKDFWRAEDDANDLSLGVMPHGSLSSQDRAGEKLASSKEQVTEK |  | 3 ± 1 µM |
